From US8466202B2, “Anthracenedione compounds” (Sunten Phytotech Co., Ltd., priority 2006, dated 2013)
Several values for one entry are separate records, joined by “and”; a condition that tells them apart may be missing. Equal entries are not always repeated.

Experiments:
[1] = Body weight of rats over the 10-day period (Example 3); format: in vivo, rat; parameters: Body weight Difference: unit not given here; settings: Sennosides 3.35 mg/kg/day; for Body weight Difference, Mean / Body weight End Day 10, Mean: group mean; for Body weight Difference, Mean / Body weight Difference: Day 10 minus Day 1; for Body weight Difference / Body weight End Day 10: individual rats
Experimental: The aforementioned STD05 and compounds were studied for the laxative activity. Healthy male S.D. rats (BioLASCO Taiwan Co. Ltd.) were divided into three groups (i.e., Groups 1-3) in this study. In Group I, 6 rats, as negative control, were given no treatment; 6 rats, as positive control, were given 3.35 mg/kg/day Sennosides (Through®, Chung Mei Pharmaceutical Co., Ltd; Active ingredient: Sennosides 20 mg, as sennoside A+B 12 mg, Lot. 012F 006); 6 rats were treated STD05 (8 mg/kg/day); 6 rats were treated with an extract fraction containing aloe-emodin, rhein, and emodin (“ARE”, 8 mg/kg/day); 6 rats were treated with Aloe-emodin (4 mg/kg/day); and 6 rats were treated with Rhein (4 mg/kg/day). In Group II, 6 rats, as negative control, were given no treatment; 6 rats, as positive control, were given 3.35 mg/kg/day Sennosides; 6 rats were treated STD05 (24 mg/kg/day); 6 rats were treated with an extract fraction containing ARE (24 mg/kg/day); 6 rats were treated with Chrysophanol (4 mg/kg/day); and 6 rats were treated with Emodin (4 mg/kg/day). In Group III, 6 rats, as negative control, were given no treatment; 6 rats were treated with Physcoin (4 mg/kg/day); and 6 rats were treated with a mixture of chrysophanol and physcion (8 mg/kg/day, “CP”). The experiments were carried out under controlled temperature, humidity, and lighting. Each rat was fed standard rat food and water ad libitum in housing that provided a 12-hour light/dark cycle. For statistical comparison, all of the rats were divided into six sets according to the body weights. The first part of the experiment studied the effect of the test substances on feces production. During the 10-day period, the body weights of the rats were weighed each day and recorded. The rat's feces was also studied three times in the manner described above during the 10-day period for any unusual observations. During the 10-day period, any rat that appeared dying was euthanized, dissected, and examined for any illness or injury. Any complications or illness were analyzed by H&E stains to determine the cause of death and to allow for dosage reconsiderations for future experiments. Summarized in Table 4 below are the effects of the compounds, mixtures, or extracts on the rat body weights.

[2] = tested on: healthy male S.D. rats; assay: Feces production in rats over the 10-day period (Example 3); format: in vivo, rat; settings: for increase of the feces amount (wet weight): vs control of the same group; for Pellet count / Water content / Wet Weight: Sennosides 3.35 mg/kg; for increase of the feces amount (wet weight), average: average of Days 1, 5 and 10
Experimental: During this period, the body weights of the rats were weighed each day and recorded. Feces of each rat were studied three times during the period for any unusual observations. Specifically, the amounts of feces were weighed on Days 11, 15, 18, and 21. During observation, each rat was placed in a metabolic cage. Feces were collected every twenty-four hours. The number of collected feces pellets was counted, and the pellets' shapes and colors were evaluated. After weighing the moist feces, they were dried in an oven at 100° C. for twenty-four hours. The water content from the feces was calculated according to the following formula: Water content percentage=[(wet weight−dry weight)/wet weight]×100%. (I) The results are summarized in Table 2 below: The aforementioned STD05 and compounds were studied for the laxative activity. Healthy male S.D. rats (BioLASCO Taiwan Co. Ltd.) were divided into three groups (i.e., Groups 1-3) in this study. In Group I, 6 rats, as negative control, were given no treatment; 6 rats, as positive control, were given 3.35 mg/kg/day Sennosides (Through®, Chung Mei Pharmaceutical Co., Ltd; Active ingredient: Sennosides 20 mg, as sennoside A+B 12 mg, Lot. 012F 006); 6 rats were treated STD05 (8 mg/kg/day); 6 rats were treated with an extract fraction containing aloe-emodin, rhein, and emodin (“ARE”, 8 mg/kg/day); 6 rats were treated with Aloe-emodin (4 mg/kg/day); and 6 rats were treated with Rhein (4 mg/kg/day). In Group II, 6 rats, as negative control, were given no treatment; 6 rats, as positive control, were given 3.35 mg/kg/day Sennosides; 6 rats were treated STD05 (24 mg/kg/day); 6 rats were treated with an extract fraction containing ARE (24 mg/kg/day); 6 rats were treated with Chrysophanol (4 mg/kg/day); and 6 rats were treated with Emodin (4 mg/kg/day). In Group III, 6 rats, as negative control, were given no treatment; 6 rats were treated with Physcoin (4 mg/kg/day); and 6 rats were treated with a mixture of chrysophanol and physcion (8 mg/kg/day, “CP”). The experiments were carried out under controlled temperature, humidity, and lighting. Each rat was fed standard rat food and water ad libitum in housing that provided a 12-hour light/dark cycle. For statistical comparison, all of the rats were divided into six sets according to the body weights. The first part of the experiment studied the effect of the test substances on feces production. During the 10-day period, the body weights of the rats were weighed each day and recorded. The rat's feces was also studied three times in the manner described above during the 10-day period for any unusual observations. During the 10-day period, any rat that appeared dying was euthanized, dissected, and examined for any illness or injury. Any complications or illness were analyzed by H&E stains to determine the cause of death and to allow for dosage reconsiderations for future experiments. Summarized in Table 4 below are the effects of the compounds, mixtures, or extracts on the rat body weights. During the period, feces produced by the rats were studied days 1, 5, and 10 in the same manner described above. […] In the 10-day period, the rats administered with STD05 produced more feces (wet weight) that the rats in the control group by about 32%. In addition, the pellet counts for the rats administered with STD05 were greater than those for the control rats by about 20%. Furthermore, STD05 increased the water content in feces by about 18%. The same experiments were conducted on rats administered with physcion, aloe-emodin, chrysophanol, rhein, emodin, CP, and ARE.

[3] = Group II, STD05 24 mg/kg, ARE 24 mg/kg, Chrysophanol 4 mg/kg, Emodin 4 mg/kg
[4] = Group II, Day 1, STD05 24 mg/kg, ARE 24 mg/kg, Chrysophanol 4 mg/kg, Emodin 4 mg/kg
[5] = Group II, Day 5, STD05 24 mg/kg, ARE 24 mg/kg, Chrysophanol 4 mg/kg, Emodin 4 mg/kg
[6] = Group II, Day 10, STD05 24 mg/kg, ARE 24 mg/kg, Chrysophanol 4 mg/kg, Emodin 4 mg/kg
[7] = Group I, STD05 8 mg/kg, ARE 8 mg/kg, Aloe-emodin 4 mg/kg, Rhein 4 mg/kg
[8] = Group I, Day 1, STD05 8 mg/kg, ARE 8 mg/kg, Aloe-emodin 4 mg/kg, Rhein 4 mg/kg
[9] = Group I, Day 5, STD05 8 mg/kg, ARE 8 mg/kg, Aloe-emodin 4 mg/kg, Rhein 4 mg/kg
[10] = Group I, Day 10, STD05 8 mg/kg, ARE 8 mg/kg, Aloe-emodin 4 mg/kg, Rhein 4 mg/kg

Structure (SMILES) | increase of the feces amount (wet weight) ([2]; Day 1) | increase of the feces amount (wet weight) ([2]; Day 5) | increase of the feces amount (wet weight) ([2]; Day 10) | increase of the feces amount (wet weight), average [2] | Body weight Difference, Mean [1, 7] | Body weight End Day 10, Mean [1, 7] | Body weight Difference [1, 7] | Body weight End Day 10 [1, 7] | Pellet count [2, 8] | Water content [2, 8] | Wet Weight [2, 8] | Pellet count [2, 9] | Water content [2, 9] | Wet Weight [2, 9] | Pellet count [2, 10] | Water content [2, 10] | Wet Weight [2, 10] | also measured
Cc1cc(O)c2c(c1)C(=O)c1cc(O)cc(O)c1C2=O [Emodin] | −30% | 12% | 4% | −5% |  |  |  |  |  |  |  |  |  |  |  |  |  | Body weight Difference, Mean [1, 3]: 32 g; Body weight End Day 10, Mean [1, 3]: 379 g; Body weight Difference [1, 3]: 30 and 35 (3×) and 45 and 10; Body weight End Day 10 ([1]; Group II, STD05 24 mg/kg, ARE 24 mg/kg, Chrysophanol 4 mg/kg, Emodin 4 mg/kg, in g (unit assumed)): 370 and 380 and 405 and 340 and 385 and 395; Pellet count [2, 4]: 90; Water content [2, 4]: 42.38%; Wet Weight [2, 4]: 16.86 g; Pellet count [2, 5]: 112; Water content [2, 5]: 51.00%; Wet Weight [2, 5]: 25.51 g; Pellet count [2, 6]: 106; Water content [2, 6]: 53.64%; Wet Weight [2, 6]: 26.21 g
O=C(O)c1cc(O)c2c(c1)C(=O)c1cccc(O)c1C2=O [Rhein] | 31% | −9% | −1% | 7% | 51 g | 331 g | 55 (4×) and 50 and 35 | 330 (2×) and 340 (2×) and 310 and 335 | 102 | 42.58% | 17.57 g | 89 | 44.55% | 16.88 g | 119 | 46.53% | 23.52 g | 
O=C1c2cccc(O)c2C(=O)c2c(O)cc(CO)cc21 [Aloe-emodin] | 27% | 9% | 20% | 19% | 58 g | 330 g | 45 and 50 (2×) and 40 (2×) and 55 | 315 (2×) and 335 and 345 (2×) and 325 | 98 | 42.48% | 17.00 g | 104 | 41.98% | 20.21 g | 125 | 50.48% | 28.86 g | 
